Values quoted from earlier work as cited in paper PMC5915681 (PLoS ONE, 2018).

Parameters: method as in PMID 24450858, PMID 24450857

Structure (SMILES): CC[C@H](Nc1ncnc2[nH]cnc12)c1nc2cccc(F)c2c(=O)n1-c1ccccc1 [idelalisib, Idelalisib]
- side effects: hepatotoxicity and gastrointestinal toxicity
